Test results as given in patent publication US4968708A, “Imidazo[2,1-B]benzothiazole compounds and antiulcer compositions containing the same” (priority 1988, dated 1990).

How the values were obtained:
gastric juice secretion = experiment: Gastric juice secretion inhibition activity (pyloric ligature); type: in vivo, Wistar strain male rats; conditions: rats, 100 mg/kg p.o.; for inhibition in vivo at 100 mg/kg: Rattus norvegicus, po, read-out: Volume Inhibition Rate
Experimental: A suspension of each test compound in a 5% gum arabic aqueous solution was orally given to Wistar strain male rats (at the age of 7 to 8 weeks, weighing 180 to 250 g; 7-9 rats in the group administered with the test compound; 14-17 rats in the control group) fasted for 24 hours at a dose of 100 mg of the test compound/5 ml/kg. Thirty minutes after administration, pyloric ligature was made under ethereal anesthesia. Four hours thereafter, the stomach was excised under ethereal anesthesia to collect gastric juice. The collected gastric juice was centrifuged (2500 rpm) at 4° C. for 10 minutes. After the supernatant was collected, the amount of the gastric juice and its pH were measured using a pH meter. Furthermore, the amount of free hydrochloric acid and the total acidity were measured with Topfer reagent and phenolphthalein reagent, respectively. Using a part of the gastric juice, pepsin output in the gastric juice was measured using casein as a substrate in a manner similar to the method of Anson et al.
(§1) In the control group, a 5% gum arabic aqueous solution was orally administered at a dose of 5 ml/kg.

[1] = test system: water-immersion stress ulcer; experiment: Antiulcer activity against water-immersion stress ulcer; type: in vivo, Wistar strain male rats; conditions: rats; for inhibition in vivo at 100 mg/kg: Rattus norvegicus, po, 6 h, read-out: Water-Immersion Stress Ulcer Inhibition Rate; for Water-Immersion Stress Ulcer Ulcer Index: 100 mg/kg p.o. 30 min before 6 h water immersion at 22°±1° C.
Experimental: A suspension of each test compound in a 5% gum arabic aqueous solution was orally given to Wistar strain male rats (at the age of 7 to 8 weeks, weighing 180 to 250 g; 7-9 rats in the group administered with the test compound; 10-16 rats in the control group) fasted for 24 hours at a dose of 100 mg of the test compound/5 ml/kg. Thirty minutes after administration, the animal was immersed in a water bath at 22°±1° C. up to the xiphisternum using a stress cage made by Tokyo University, Faculty of Pharmacology, to apply a stress load for 6 hours. After applying the stress load, the rats had the cervical vertebra dislocated to death. Then, the stomach was excised and, spotted and linear erosion and a long diameter of any ulcer were microscopically measured to determine an ulcer index and an inhibition rate.
as §1

aspirin-induced ulcer = experiment: Antiulcer activity against aspirin-induced ulcer model; type: in vivo, Wistar strain male rats; conditions: rats, 100 mg/kg p.o. 30 min before aspirin 200 mg/kg p.o.; for inhibition in vivo at 100 mg/kg: Rattus norvegicus, po, 7 h, read-out: Aspirin Induced Ulcer Inhibition Rate; for Aspirin Induced Ulcer Ulcer Index: stomach excised 7 h after aspirin
Experimental: Thirty minutes after administration, aspirin was further orally administered at a dose of 200 mg/kg. Seven hours after administration of aspirin, the stomach was excised under ethereal anesthesia and spotted and linear erosion and a long diameter of any ulcer were microscopically measured to determine an ulcer index and an inhibition rate.
as §1

ddy strain male mice = experiment: Acute toxicity; type: in vivo; conditions: 7 days observation
Experimental: A suspension of each test compound in a 5% gum arabic aqueous solution was orally given to ddy strain male mice (at the age of 4 to 5 weeks, weighing 25 to 35 g; 2 to 9 mice in one group). For 7 days after the administration, the mice were observed as to if they were dead or alive. Based on the number of deaths, the LD50 value was determined by the Probit method.

[2] = 4 h, pyloric ligature, 4 h, vs control group
[3] = pyloric ligature 30 min later, gastric juice collected after 4 h
[4] = pyloric ligature, 4 h, first part of Table 5
[5] = 100 mg/kg p.o. 30 min before 6 h water immersion, vs control group
[6] = pyloric ligature, 4 h, second part of Table 5

Row | Molecule | inhibition in vivo at 100 mg/kg (gastric juice secretion; [2]) | Volume (gastric juice) (gastric juice secretion; [3]) | Acidity (gastric juice secretion; pyloric ligature, 4 h) | Free HCl (gastric juice secretion; pyloric ligature, 4 h) | Pepsin Activity (gastric juice secretion; pyloric ligature, 4 h) | Pepsin Output (gastric juice secretion; pyloric ligature, 4 h) | pH (gastric juice) (gastric juice secretion; [4]) | inhibition in vivo at 100 mg/kg [1, 5] | Water-Immersion Stress Ulcer Ulcer Index [1] | inhibition in vivo at 100 mg/kg (aspirin-induced ulcer; vs control group) | Aspirin Induced Ulcer Ulcer Index (aspirin-induced ulcer) | Acid Output (gastric juice secretion; [6]) | Free HCl (gastric juice secretion; [6]) | Pepsin Output (gastric juice secretion; [6]) | Volume (gastric juice) (gastric juice secretion; [6]) | pH (gastric juice) (gastric juice secretion; [6]) | Mortality (No. death/No. treated) (ddy strain male mice; 500 mg/kg p.o) | Mortality (No. death/No. treated) (ddy strain male mice; 1000 mg/kg p.o) | also measured
1 | CCNC(=O)OCc1c(C)nc2sc3ccccc3n12 [Example 20, 2-Methylimidazo[2,1-b]benzothiazole 3-methyl ethyl carbamate] | 6.3% | 5.9 ± 0.3 mL | 54.5 ± 7.0 mEq/l | 26.1 ± 5.5 mEq/l | 91.6 ± 1.7 units/ml | 136.0 ± 7.2 units/hr | 1.89 ± 0.12 | 69.7% | 4.0 ± 1.3 mm^2 | 26.2% | 56.2 ± 6.8 mm^2 | – | – | – | – | – | – | – | –
2 | Cc1nc2sc3cc(F)ccc3n2c1CO [Example 11, 7-Fluoro-2-methylimidazo[2,1-b]benzothiazole-3-methanol] | – | – | – | – | – | – | – | 54% | 10.9 ± 4.4 mm^2 | 51.8% | 34.2 ± 2.2 mm^2 | 118.8 ± 37.2 mcEq/100 g | 89.1 ± 35.5 mcEq/100 g | 16.7 ± 2.9 mg tyrosine/100 g | 1.40 ± 0.34 ml/100 g | 1.58 ± 0.15 | 0/5 | 0/5 | –
3 | Cc1nc2sc3ccccc3n2c1C(O)c1ccccc1 (stereo not shown) [Example 7, 3(αHydroxy)benzyl-2-methylimidazo[2,1-b]benzothiazole] | 8.5% | 5.4 ± 0.6 mL | 69.1 ± 7.0 mEq/l | 39.7 ± 5.0 mEq/l | 99.5 ± 4.1 units/ml | 135.0 ± 18.1 units/hr | 1.65 ± 0.13 | 16.7% | 17.9 ± 4.5 mm^2 | 31% | 39.6 ± 3.7 mm^2 | – | – | – | – | – | – | – | –
4 | Cc1nc2sc3ccccc3n2c1C(C)(C)O [Example 6, 3(α-Hydroxy-1-methyl)ethyl-2-methylimidazo[2,1-b]benzothiazole] | – | – | – | – | – | – | – | 50.6% | 11.7 ± 4.5 mm^2 | 22.3% | 55.1 ± 8.7 mm^2 | 169.9 ± 38.0 mcEq/100 g | 138.6 ± 37.3 mcEq/100 g | 23.4 mg tyrosine/100 g | 1.90 ± 0.33 ml/100 g | 1.24 ± 0.07 | 0/5 | 0/5 | –
5 | 2-Methyl-3-thenoyloxymethylimidazo[2,1-b]benzothiazole [Example 19] | – | 4.9 ± 0.5 mL | 78.9 ± 2.7 mEq/l | 48.6 ± 3.4 mEq/l | 99.6 ± 2.2 units/ml | 122.8 ± 14.4 units/hr | 1.56 ± 0.10 | – | 11.3 ± 2.6 mm^2 | – | 63.7 ± 8.1 mm^2 | – | – | – | – | – | – | – | Volume Inhibition Rate (gastric juice secretion; pyloric ligature, 4 h, vs control group): 18.3%; Water-Immersion Stress Ulcer Inhibition Rate [1, 5]: 51.5%; Aspirin Induced Ulcer Inhibition Rate (aspirin-induced ulcer; vs control group): 4.6%
6 | COc1ccc(COCc2c(C)nc3sc4ccccc4n23)cc1 [Example 14, 2-Methylimidazo[2,1-b]benzothiazole-3-methanol (4-methoxy-benzyl) ether] | – | – | – | – | – | – | – | 39% | 7.5 ± 2.2 mm^2 | 15% | 71.5 ± 8.0 mm^2 | 196.8 ± 38.0 mcEq/100 g | 144.9 ± 35.0 mcEq/100 g | 22.4 ± 3.8 mg tyrosine/100 g | 2.63 ± 0.35 ml/100 g | 1.42 ± 0.08 | 0/5 | 0/5 | –
7 | COc1ccccc1C(=O)OCc1c(C)nc2sc3ccccc3n12 [Example 18] | -35% | 8.1 ± 0.8 mL | 82.1 ± 5.0 mEq/l | 51.7 ± 5.8 mEq/l | 91.4 ± 3.3 units/ml | 186.6 ± 24.3 units/hr | 1.45 ± 0.06 | 42.1% | 13.5 ± 4.1 mm^2 | 32.2% | 45.3 ± 10.4 mm^2 | – | – | – | – | – | – | – | –
8 | Cc1nc2sc3ccccc3n2c1COC(C)C.Cl [Example 13, 2-Methylimidazo[2,1-b]benzothiazole-3-methanol isopropyl ether hydrochloride] | – | – | – | – | – | – | – | – | – | 71% | 24.4 ± 3.3 mm^2 | 57.6 ± 16.4 mcEq/100 g | 22.3 ± 10.7 mcEq/100 g | 13.0 ± 2.3 mg tyrosine/100 g | 1.29 ± 0.23 ml/100 g | 2.70 ± 0.53 | 0/5 | 5/5 | –
9 | Cc1nc2sc3ccccc3n2c1C(C)O (stereo not shown) [Example 4, 3-(1-Hydroxyethyl)-2-methylimidazo[2,1-b]benzothiazole] | – | – | – | – | – | – | – | 69.2% | 7.3 ± 2.5 mm^2 | 88.7% | 8.0 ± 2.9 mm^2 | 30.8 ± 5.1 mcEq/100 g | 8.0 ± 2.9 mcEq/100 g | 9.9 ± 1.3 mg tyrosine/100 g | 0.69 ± 0.09 ml/100 g | 2.36 ± 0.21 | 0/5 | 0/5 | –
10 | CCCC(O)c1c(C)nc2sc3ccccc3n12 (stereo not drawn) [Example 5, 3(α-Hydroxy)butyl-2-methylimidazo[2,1-b]benzothiazole] | -13.6% | 6.7 ± 0.7 mL | 45.0 ± 5.6 mEq/l | 10.4 ± 2.1 mEq/l | 86.2 ± 1.9 units/ml | 139.6 ± 16.7 units/hr | 2.17 ± 0.12 | 5.1% | 20.4 ± 4.2 mm^2 | 23.7% | 43.8 ± 10.3 mm^2 | – | – | – | – | – | – | – | –
11 | COc1ccc2c(c1)sc1nc(C)c(CO)n12 [Example 9, 7-Methoxy-2-methylimidazo[2,1-b]benzothiazole-3-methanol] | 15.9% | 5.3 ± 0.9 mL | 76.2 ± 4.3 mEq/l | 42.6 ± 5.2 mEq/l | 102.2 ± 3.9 units/ml | 135.5 ± 22.7 units/hr | 1.55 ± 0.08 | 51.5% | 6.4 ± 1.2 mm^2 | 15% | 64.8 ± 7.5 mm^2 | – | – | – | – | – | – | – | –
12 | COc1cc2c(sc3nc(C)c(CO)n32)c(OC)c1OC [Example 10, 6,7,8-Trimethoxy-2-methylimidazo[2,1-b]benzothiazole-3-methanol] | 17.5% | 5.2 ± 0.5 mL | 87.3 ± 3.5 mEq/l | 50.4 ± 3.2 mEq/l | 103.5 ± 1.8 units/ml | 133.7 ± 10.8 units/hr | 1.47 ± 0.03 | 27.3% | 9.6 ± 2.1 mm^2 | 29.5% | 53.7 ± 8.3 mm^2 | – | – | – | – | – | – | – | –
